Reference: patent US10172777B2, “Phytospingosine derivative and composition containing same” (AMOREPACIFIC CORPORATION, priority 2015, dated 2019)

Experiments:
[1] = Solubility test: precipitation behavior in aqueous solution kept at room temperature; type: physicochemical; set-up: key: ◯: Not precipitated; Δ: Not remarkably precipitated but fine particles are generated; X: Remarkably precipitated; details: dissolved at 50 to 60° C.
Method: Thereafter, the resulting solution was kept at room temperature to check a precipitation behavior over time. As Comparative Example, the same experiment was performed using phytospingosine.

[2] = tested on: Brevundimonas vesicularis; assay: Antibacterial test (MIC, double dilution in 96-well plate); type: cell-based; details: P. ovale medium, cultured 32 to 48 hours
Method: (§1) As six representative microbes (fungi, and bacteria) causing skin diseases, each of Malassezia globosa, Malassezia restricta, Candia albicans (C. albicans), Aspergillus niger (A. niger), Enterococcus faecalis, and Brevundimonas vesicularis was seeded in a P. ovale medium, and cultured at 32° C. for 3 days while stirring. The resulting culture broth was diluted with P. ovale at a density of 1.0×10^7 CFU/mL, and the diluted culture broth was used as a test bacterial solution. […] (1) 200 μL of the sample solution prepared in (2) was added to the first row of a 96-well plate. 100 μL of P. ovale was added to the other wells. (2) After the first row of the mixtures were thoroughly mixed, 100 μL of each of the mixtures was taken, added to the second row, and then thoroughly mixed, and 100 μL of each of the mixtures was again taken, and added to the third row. Thereafter, this procedure was repeated to perform a double dilution. (3) After each of the microbes were cultured for 32 to 48 hours, a degree of suspension was used to determine whether the bacteria were growing. […] When it was difficult to determine whether the bacteria were growing due to the opaque mixed solution, the growth of the bacteria was observed under a microscope.

[3] = tested on: Candia albicans (C. albicans); assay: as above; type: cell-based; details: P. ovale medium, cultured 32 to 48 hours
Method: as §1

Enterococcus faecalis = assay: as above; type: cell-based; details: P. ovale medium, cultured 32 to 48 hours
Method: as §1

[4] = tested on: Aspergillus niger (A. niger); assay: as above; type: cell-based; details: P. ovale medium, cultured 32 to 48 hours
Method: as §1

Malassezia globosa = assay: as above; type: cell-based; details: P. ovale medium, cultured 32 to 48 hours
Method: as §1

Malassezia restricta = assay: as above; type: cell-based; details: P. ovale medium, cultured 32 to 48 hours
Method: as §1

[5] = solvent isocetyl alcohol; cited from earlier work
[6] = 0.1% by weight in distilled water, 1 day
[7] = 0.1% by weight in distilled water, 7 days
[8] = 0.1% by weight in distilled water, 30 days
[9] = 1.0% by weight in distilled water, 1 day
[10] = 1.0% by weight in distilled water, 7 days
[11] = 1.0% by weight in distilled water, 30 days

precipitation behavior over time [1, 6] | precipitation behavior over time [1, 7] | precipitation behavior over time [1, 8] | precipitation behavior over time [1, 9] | precipitation behavior over time [1, 10] | precipitation behavior over time [1, 11] | minimum inhibitory concentration (MIC) [2] | minimum inhibitory concentration (MIC) [3] | minimum inhibitory concentration (MIC) (Enterococcus faecalis) | minimum inhibitory concentration (MIC) [4] | minimum inhibitory concentration (MIC) (Malassezia globosa) | minimum inhibitory concentration (MIC) (Malassezia restricta) | Compound | content dissolved in isocetyl alcohol [5]
◯ | ◯ | ◯ | ◯ | ◯ | ◯ | <0.00097 | 0.0019 | 0.0039 | 0.25 | 0.001954 | 0.001954 | CCCCCCCCCCCCCC[C@@H](O)[C@@H](O)[C@H](CO)NCC1(O)OC[C@@H](O)[C@@H](O[C@H]2O[C@H](CO)[C@@H](O)[C@H](O)[C@H]2O)[C@@H]1O (stereo partly shown) [Example 1] | 
◯ | ◯ | ◯ | ◯ | ◯ | ◯ |  |  |  |  |  |  | CCCCCCCCCCCCCC[C@@H](O)[C@@H](O)[C@H](CO)NCC1(O)OC[C@@H](O)[C@@H](O[C@H]2O[C@H](CO)[C@H](O)[C@H](O)[C@H]2O)[C@@H]1O (stereo partly shown) [Example 2] | 
Δ | X | X | X | X | X | <0.00097 | 0.0312 | 0.062 | 0.5 | 0.001954 | 0.001954 | CCCCCCCCCCCCCC[C@@H](O)[C@@H](O)[C@@H](N)CO [Comparative Example, phytospingosine] | approximately 1 % by weight
